The EC50 is the concentration at which the effect is half-maximal.

Here are results for 8 molecules from patent US20090257979A1, “Novel Inhibitors of Hepatitis C Virus Replication” (INTERMUNE, INC., priority 2008, published 2009).

The subject of one test is HCV Replicon. Nature of the test: HCV Replicon inhibition. In kind it is cell-based. The conditions noted are these: Hepatitis C virus. On the technique in general: Replicon systems follow genome replication, usually without infectious particles.
The target in a further test is T1, NS5B polymerase protein (Hepatitis C virus genotype 1a, UniProt P27958).
T1 construct: pre-incubated with the RNA template and NS5B polymerase protein; Replizyme
Nature of the test: biochemical. The conditions noted are these: pre-incubated 37° C. 30 minutes; RdRp reaction 90 minutes at 37° C.; read-out: HCV NS5B inhibition EC50. On the procedure: The compounds were tested in the Replizyme HCV heterotemplate radioactive RNA-dependent RNA-polymerase (RdRp) assay. The test compounds were pre-incubated with the RNA template and NS5B polymerase protein at 37° C. for 30 minutes. The RdRp reaction was initiated with the addition of the NTPs to the buffer-NS5B-compound mix, and was allowed to proceed for 90 minutes at 37° C. Control reactions included: no enzyme, 5% DMSO (test compound solvent), no compound/solvent, Cordycepin-TP and HCV-796 (IC50 values used as a reference inhibition). Radioactive products were collected by applying the stopped reaction to DE-81 paper, air dried prior to washing with buffer comprising NaH2PO4 and sodium pyrophosphate to remove unincorporated ^32P-GTP in the NTP mix, and rinsed with dH2O followed by 100% ethanol. The DE-81 paper was air dried, squares cut out and placed in scintillation tubes for counting.

Bounds are passed on as bounds.

T1 sequence (P27958 2421-3011): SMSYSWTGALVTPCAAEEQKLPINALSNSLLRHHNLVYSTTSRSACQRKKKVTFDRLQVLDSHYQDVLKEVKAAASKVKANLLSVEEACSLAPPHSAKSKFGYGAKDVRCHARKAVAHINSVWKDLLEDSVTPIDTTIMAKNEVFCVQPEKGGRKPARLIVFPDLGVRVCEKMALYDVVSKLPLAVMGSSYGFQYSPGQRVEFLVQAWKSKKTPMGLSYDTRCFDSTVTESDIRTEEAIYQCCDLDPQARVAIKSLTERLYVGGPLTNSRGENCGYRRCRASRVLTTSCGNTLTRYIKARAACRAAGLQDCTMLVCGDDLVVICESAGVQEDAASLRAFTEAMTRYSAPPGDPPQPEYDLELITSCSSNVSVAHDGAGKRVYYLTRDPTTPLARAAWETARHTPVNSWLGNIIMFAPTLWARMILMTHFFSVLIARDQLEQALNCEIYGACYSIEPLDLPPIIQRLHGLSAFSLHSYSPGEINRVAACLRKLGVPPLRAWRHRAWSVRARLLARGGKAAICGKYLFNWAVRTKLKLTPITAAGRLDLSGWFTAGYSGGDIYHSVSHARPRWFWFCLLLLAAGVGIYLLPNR

`CS(=O)(=O)Nc1ccc2c(c1)S(=O)(=O)N=C(c1c(O)n3ccccc3c(Cc3ccc(F)c(F)c3)c1=O)N2` [Compound 236, N-{3-[1-(3,4-Difluoro-benzyl)-4-hydroxy-2-oxo-2H-quinolizin-3-yl]-1,1-dioxo-1,4-dihydro-1lambda′6′-benzo[1,2,4]thiadiazin-7-yl}-methanesulfonamide]: the EC50 in the test with HCV Replicon and at NS5B polymerase protein was less than 100 nM each time.
Regarding `CS(=O)(=O)Nc1ccc2c(c1)S(=O)(=O)N=C(c1c(O)n3ccccc3c(Cc3ccccc3F)c1=O)N2` [Compound 237, N-{3-[1-(2-Fluoro-benzyl)-4-hydroxy-2-oxo-2H-quinolizin-3-yl]-1,1-dioxo-1,4-dihydro-1lambda′6′-benzo[1,2,4]thiadiazin-7-yl}-methanesulfonamide], the EC50 in the test with HCV Replicon and at NS5B polymerase protein was less than 100 nM in each case.
In the case of `CS(=O)(=O)Nc1ccc2c(c1)S(=O)(=O)N=C(c1c(O)n3ccccc3c(Cc3ccccc3)c1=O)N2` [Compound 238, N-[3-(1-Benzyl-4-hydroxy-2-oxo-2H-quinolizin-3-yl)-1,1-dioxo-1,4-dihydro-1lambda′6′-benzo[1,2,4]thiadiazin-7-yl]-methanesulfonamide], the EC50 in the test on HCV Replicon and on NS5B polymerase protein was less than 100 nM throughout.
Take `COc1ccc(Cc2c(=O)c(C3=NS(=O)(=O)c4cc(NS(C)(=O)=O)ccc4N3)c(O)n3ccccc23)cc1` [Compound 245]: the EC50 was less than 100 nM in the test with HCV Replicon and 100 to 1000 nM on NS5B polymerase protein.
Taken in the same sequence, the figures for `Cc1cccc2c(CCC(C)C)c(=O)c(C3=NS(=O)(=O)c4cc(NS(C)(=O)=O)ccc4N3)c(O)n12` [Compound 249] were less than 100 nM and 100 to 1000 nM.
Taken in the same sequence, the figures for `CC(C)CCc1c(=O)c(C2=NS(=O)(=O)c3cc(NS(C)(=O)=O)ccc3N2)c(O)n2cc(F)ccc12` [Compound 250] were less than 100 nM and less than 100 nM.
Taken in the same sequence, the figures for `Cc1ccc2c(CCC(C)C)c(=O)c(C3=NS(=O)(=O)c4cc(NS(C)(=O)=O)ccc4N3)c(O)n2c1` [Compound 252] were less than 100 nM and less than 100 nM.
As for `CS(=O)(=O)Nc1ccc2c(c1)S(=O)(=O)N=C(c1c(O)n3ccccc3c(CCC3CC3)c1=O)N2` [Compound 253], the figures for the EC50 in the test with HCV Replicon and at NS5B polymerase protein were 100 to 1000 nM and 1000 to 10000 nM, respectively.
